The text below walks through data of ChEMBL document CHEMBL5537117, “Novel 3-hydroxypyridin-4(1H)-One derivatives as ferroptosis inhibitors with iron-chelating and reactive oxygen species scavenging activities and therapeutic effect in cisplatin-induced cytotoxicity” (Eur J Med Chem, 2024).

The nature of data set [1]: Antioxidant activity assessed as ABTS radical scavenging activity incubated in dark for 6 mins by absorbance based microplate reader analysis. The format is functional.
The nature of data set [2]: Antioxidant activity assessed as trolox equivalent of ORAC radical scavenging activity at 8 uM. The format is functional.
Data set [3] in a line: Antioxidant activity assessed as trolox equivalent of ORAC radical scavenging activity at 4 uM. Format: functional.
A short description of data set [4]: Acid dissociation constant, pKa1 of the compound in 0.1M KCl at pH 2.0 to 10.5 by UV absorption method. The format is physicochemical.
The nature of data set [5]: Acid dissociation constant, pKa2 of the compound in 0.1M KCl at pH 2.0 to 10.5 by UV absorption method. The format is physicochemical.
Data set [6] is described as follows: Acid dissociation constant, pKa3 of the compound in 0.1M KCl at pH 2.0 to 10.5 by UV absorption method. The format is physicochemical.
Data set [7] in a line: Metal chelating activity assessed as Fe3+ chelation.
Data set [8] is described as follows: Log K1 of the compound in 0.1M KCl at pH 0.9 to 2.1 by UV absorption method. The format is physicochemical.
Data set [9] can be described thus: Log K2 of the compound in 0.1M KCl at pH 2.0 to 10.5 by UV absorption method. The format is physicochemical.
Data set [10] in a line: Log K3 of the compound in 0.1M KCl at pH 2.0 to 10.5 by UV absorption method. Format: physicochemical.
In data set [11] the test system is HT-22. The data set is described as follows: Anti-ferroptotic activity in erastin-induced ferroptosis in mouse HT-22 cells assessed as cell viability incubated for 24 hrs by MTT assay. Format: functional, cell-based. As to conditions: HT-22, 24 h. A general note: Tetrazolium dyes change colour on reduction, which living cells bring about.
In data set [12] the test system is HT-22. As to the kind of experiment: Cytotoxicity against mouse HT-22 cells assessed as reduction in cell viability at 150 uM by MTT assay relative to control. Format: toxicity, cell-based. As to conditions: ht-22, 150 µM.

The IC50 is the concentration needed to halve the response being measured. One may read the pKa as the pH at which an ionisable group is half protonated. For `Cc1cccc(/C=C/C(=O)Nn2ccc(=O)c(O)c2C)c1C`, the IC50 in [1] was found to be 10.2 µM. Moreover, the Activity in [2] came out at 13.1; in data set [3], 7.64; in data set [7], 17.5. In addition, the pKa in [4] was determined as 2.38; in data set [5], 7.06; in data set [6], 10.3. The “log(activity)” value in data set [8] stood at 14.07; in data set [9] it was 26.22; in data set [10] it was 35.67.

On to `Cc1ccccc1/C=C/C(=O)Nn1ccc(=O)c(O)c1C`, for which the IC50 in data set [1] is 4.68 µM. The figures for the Activity in data set [2], in data set [3] and in [7] were 3.09, 0.97 and 17.6, respectively. The pKa in data set [4] worked out at 2.23; in data set [5] it was 6.98; in data set [6], 10.2. The results for the “log(activity)” value in data set [8], in data set [9] and in data set [10] were 13.79, 25.95 and 35.43, respectively.

As usually defined, the EC50 is the concentration that produces a half-maximal response. On to `COc1ccc(/C=C/C(=O)Nn2ccc(=O)c(O)c2C)cc1`, for which the 50% inhibitory concentration (IC50) in data set [1] came out at 5.17 µM. The Activity in data set [2] is 19.4; in data set [3], 9.42; in [7] it was 17.1. Further, in data set [11], the EC50 stood at 28.9 µM. Moreover, the pKa in data set [4] amounted to 2.42; in data set [5], 7.41; in data set [6], 10.3. Also, the “log(activity)” value in [8] is 14.01; in [9], 26.09; in data set [10], 35.52.

On to `COc1cccc(/C=C/C(=O)Nn2ccc(=O)c(O)c2C)c1`, for which the IC50 in data set [1] came to 4.78 µM. Further, the Activity was 16.1 in data set [2], 8.99 in [3], > 80% in [12] and 17.8 in data set [7]. Further, the EC50 in [11] is 26.2 µM. In addition, the results for the pKa in data set [4], in data set [5] and in data set [6] were 2.4, 6.99 and 10.2, respectively. The figures for the “log(activity)” value in data set [8], in data set [9] and in data set [10] were 14.2, 26.72 and 35.64, respectively.

In the case of `Cc1c(O)c(=O)ccn1NC(=O)/C=C/c1ccc(F)cc1Cl`, the IC50 in data set [1] was 5.01 µM. The Activity in data set [2] was determined as 4.78; in [3], 2.15; in data set [7], 17.6. Besides, the pKa worked out at 2.71 in [4], 6.7 in data set [5] and 10.2 in [6]. The “log(activity)” value is 14.41 in [8], 26.4 in [9] and 35.55 in data set [10].

Turning to `Cc1c(C)c2c(c(C)c1O)CCC(C)(C(=O)O)O2` (centres undefined) [TROLOX], the IC50 in [1] was determined as 15.3 µM.

For `COc1ccccc1/C=C/C(=O)Nn1ccc(=O)c(O)c1C`, the IC50 in data set [1] came to 4.78 µM. The Activity in [2] was 14.6; in data set [3] it was 8.92; in data set [12], > 80%; in data set [7], 17.4. Further, the concentration giving a half-maximal response (EC50) in [11] was 18.2 µM. Also, the pKa was 2.46 in data set [4], 7.09 in data set [5] and 10.3 in data set [6]. The “log(activity)” value in [8] was determined as 14.14; in [9], 26.17; in [10] it was 35.48.

With `O=C(O)/C=C/c1ccccc1` [CINNAMIC ACID], the IC50 in data set [1] was > 100 µM. The Activity in data set [2] was 1.13; in data set [3] it was 1.27.

`Cc1c(O)c(=O)ccn1NC(=O)/C=C/c1c(F)cccc1F`: the IC50 in [1] came out at 4.81 µM. Also, the Activity amounted to 5.03 in data set [2], 2.45 in data set [3] and 17.4 in [7]. The pKa in data set [4] was 2.51; in data set [5] it was 6.83; in [6], 10.2. Moreover, the “log(activity)” value is recorded as 14.27 in data set [8], 26.25 in [9] and 35.32 in data set [10].

Turning to `Cc1c(O)c(=O)ccn1NC(=O)/C=C/c1ccc(F)cc1`, the IC50 in data set [1] was 4.97 µM. The Activity in data set [2] is 34.1; in data set [3], 22.8; in [12], > 80%; in [7], 17.8. Moreover, the EC50 in [11] is 17.4 µM. In addition, the pKa in data set [4] was 2.64; in [5], 7.15; in [6], 10.2. Moreover, the figures for the “log(activity)” value in data set [8], in data set [9] and in data set [10] were 14.3, 26.34 and 35.77, respectively.

With `Oc1ccc(/C=C/c2cc(O)cc(O)c2)cc1` [RESVERATROL], in [1], the IC50 worked out at 5.14 µM. Further, the figures for the Activity in [2] and in [3] were 17.6 and 16.7, respectively.

With `Cc1c(O)c(=O)ccn1NC(=O)/C=C/c1ccccc1`, the IC50 in data set [1] amounted to 4.8 µM. In addition, the Activity in data set [2] was 11.4; in data set [3], 6.73; in data set [12], > 80%; in [7], 17.9. Moreover, the EC50 in [11] was found to be 72 µM. The figures for the pKa in data set [4], in data set [5] and in data set [6] were 2.37, 7.1 and 10.1, respectively. Also, the “log(activity)” value in [8] worked out at 13.61; in data set [9] it was 25.88; in [10] it was 35.4.

Consider `Cc1c(O)c(=O)ccn1NC(=O)/C=C/c1cc(Cl)ccc1Cl`, for which, in data set [1], the IC50 is > 100 µM. Further, the Activity worked out at 6.56 in [2], 3.06 in [3] and 17.7 in [7]. Moreover, the pKa was determined as 2.48 in data set [4], 7.34 in data set [5] and 10 in data set [6]. For the same compound, the “log(activity)” value was 14.19 in [8], 26.02 in data set [9] and 35.05 in [10].

Turning to `Cc1c(O)c(=O)ccn1NC(=O)/C=C/c1ccc(C(F)(F)F)cc1`, the IC50 in data set [1] was found to be 12 µM. Besides, the Activity was 0.61 in data set [2] and < 0.1 in [3].

In the case of `Cc1ccc(/C=C/C(=O)Nn2ccc(=O)c(O)c2C)cc1`, the IC50 in data set [1] was 4.79 µM. The values for the Activity in [2], in [3] and in [7] were 2.89, 0.72 and 16.8, respectively. Further, the pKa was 2.25 in data set [4], 7.24 in [5] and 10.3 in data set [6]. Besides, the results for the “log(activity)” value in [8], in data set [9] and in data set [10] were 13.93, 26.49 and 34.5, respectively.

Regarding `Cc1cccc(/C=C/C(=O)Nn2ccc(=O)c(O)c2C)c1`, in data set [1], the IC50 worked out at 4.91 µM. The Activity was determined as 2.51 in data set [2], 0.57 in data set [3] and 15.8 in data set [7]. For the same compound, the figures for the pKa in data set [4], in data set [5] and in [6] were 1.3, 7.23 and 10.4, respectively. Further, the results for the “log(activity)” value in data set [8], in data set [9] and in [10] were 13.57, 25.95 and 35.55, respectively.

Turning to `COc1ccc(/C=C/C(=O)Nn2ccc(=O)c(O)c2C)c(F)c1`, in data set [1], the 50% inhibitory concentration (IC50) is > 100 µM. Besides, the Activity was 6.01 in data set [2] and < 0.1 in data set [3].

As to `Cc1c(O)c(=O)ccn1NC(=O)/C=C/c1ccc(F)cc1F`, the IC50 in data set [1] was 7.51 µM. Also, the Activity in data set [2] is 2.67; in data set [3] it was 1.17; in [7], 17.5. Besides, the pKa is 2.57 in data set [4], 6.83 in data set [5] and 10.2 in data set [6]. The figures for the “log(activity)” value in [8], in data set [9] and in [10] were 14.11, 26.11 and 35.31, respectively.

As to `O=C(/C=C/c1ccccc1)c1ccccc1` [CHALCONE], in [11], the EC50 is > 500 µM.

As to `Cc1cccc(C)c1/C=C/C(=O)Nn1ccc(=O)c(O)c1C`, the IC50 in [1] is 4.88 µM. In addition, the values for the Activity in data set [2], in data set [3] and in data set [7] were 5.6, 2.91 and 16.9, respectively. The pKa stood at 2.06 in data set [4], 6.97 in data set [5] and 10.3 in data set [6]. Moreover, the figures for the “log(activity)” value in [8], in data set [9] and in data set [10] were 13.71, 25.8 and 35.08, respectively.

As to `Cc1c(O)c(=O)ccn1NC(=O)/C=C/c1ccccc1Cl`, the IC50 in data set [1] came to 5.14 µM. In addition, the Activity in data set [2] is 6.46; in data set [3] it was 2.67; in data set [7], 17.4. Moreover, the pKa stood at 2.22 in data set [4], 6.96 in [5] and 10.2 in data set [6]. Moreover, the “log(activity)” value in [8] turned out to be 14.03; in data set [9], 26.11; in [10], 35.29.

Turning to `Cc1c(O)c(=O)ccn1NC(=O)/C=C/c1cccc(Cl)c1F`, the IC50 in data set [1] came to 21.8 µM. Further, the Activity in data set [2] was 1.24; in data set [3], < 0.1.

Turning to `COc1cc(F)ccc1/C=C/C(=O)Nn1ccc(=O)c(O)c1C`, in [1], the IC50 turned out to be 5.01 µM. The Activity in [2] is 3.83; in data set [3] it was 1.21; in data set [7], 17. Also, the pKa is 2.34 in [4], 7.02 in data set [5] and 10.4 in [6]. For the same compound, the “log(activity)” value in [8] was determined as 14.06; in [9], 26.09; in [10], 35.29.

For `Cc1c(O)c(=O)ccn1NC(=O)/C=C/c1ccc(Cl)cc1`, the IC50 in data set [1] turned out to be 8.66 µM. The Activity in data set [2] and in [3] was < 0.1 throughout.
